In patent publication US3989837A, “Pharmaceutical compositions” (Chinoin Gyogyszer-es Vegyeszeti Termekek Gyara RT, priority 1972, dated 1976):

System: rats
Assay: Testing of ulcerogenic effect in rats (Table 5)
Assay type: in vivo, rat
Settings: 5 days
Procedure: Unstarved rats weighing 160-180 g. were used for the experiment. The animals were divided into groups of 20. The compounds were administered as 1% suspensions stabilized with methylcellulose, by the oral route, at a volume of 0.2 ml./100 g. Treatment was continued for 5 days (1 treatment/day), and was suspended on the 6th and 7th day. On the 8th experimental day the […] were killed by ether overdosage. After laparatomy the stomachs were removed, washed twice in water and thereafter dipped in formaline. An incision was made along the large curvature, then again rinced with water and spread on a PVC plate. The gastric mucosa is evaluated macroscopically by two methods:
1. The ulcer index was calculated. The animals were divided into groups on the ground of the diameter of the largest ulcer and the extent of the changes was scored as follows:
The number of animals in the individual groups was multiplied by the number of scores and the proucts of multiplications are added and the sum thus obtained is divided by the number of animals.
2. Ulcer counts were calculated. The number of ulcers was counted on each stomach and the total number of ulcers was divided by the number of animals. […] Changes found in the intestinates were evaluated as "all or naught" and expressed in per cent of the number of animals.

COc1ccc2c(c1)c(CC(=O)OCC(Cl)(Cl)Cl)c(C)n2C(=O)c1ccc(Cl)cc1 [Example 5, 1-(p-chlorobenzoyl)-2-methyl-5-methoxy-indol-3-yl-acetic-acid trichloroethyl ester] was tested, and the Deaths (oral 27.3 mg./kg.) was 1/20, the “Number of surviving animals” value (oral 27.3 mg./kg.) was 19 and the “Per cent of animals exhibiting changes of intest. mucosa” value (oral 27.3 mg./kg.) was 10.5 Per cent. The “Ulcer number” value (oral 27.3 mg./kg.) was 0, the Deaths (oral 54.7 mg./kg.) was 5/20 and the “Number of surviving animals” value (oral 54.7 mg./kg.) was 15. The “Per cent of animals exhibiting changes of intest. mucosa” value (oral 54.7 mg./kg.) was 80 Per cent and the “Ulcer number” value (oral 54.7 mg./kg.) was 0.27.
